Reference: US20250270227A1, “CAMPTOTHECIN DERIVATIVE, AND PHARMACEUTICAL COMPOSITION AND USE THEREOF” (SIMCERE ZAIMING PHARMACEUTICAL CO., LTD., priority 2021, published 2025)
Read-outs that look alike come from different tables or passages of the source.

Columns and labels:
CYP3A4 = CYP3A4 (Homo sapiens (Human), UniProt P08684); assay: Inhibitory effect on CYP enzymatic activity in human liver microsomes; type: in vitro ADME
Procedure: (§1) The inhibition of CYP2C9, CYP2D6 and CYP3A4 enzymatic activities by the compounds of the present disclosure was determined by the following experimental method.
(§2) • 1. Human liver microsomes (Corning 452117) • 2. NADPH (Solarbio 705Y021) • 3. Positive substrates diclofenac (Sigma SLBV3438), dextromethorphan (TRC 3-EDO-175-1) and midazolam (Cerilliant FE01161704) • 4. Positive inhibitors sulfaphenazole (D. Ehrenstorfer GmbH 109012), quinidine (TCI WEODL-RE) and ketoconazole (Sigma 100M1091V) • 5. AB Sciex Triple Quad 5500 liquid chromatography-mass spectrometry
(§3) • 1. Preparation of 100 mM phosphate buffered saline (PBS): 7.098 g of Na2HPO4 was weighed, 500 mL of pure water was added and subjected to ultrasonic dissolution to obtain solution A. 3.400 g of KH2PO4 was weighed, 250 mL of pure water was added and subjected to ultrasonic dissolution to obtain solution B. Solution A was placed on a stirrer and solution B was slowly added until the pH value reached 7.4 to prepare 100 mM PBS buffer. • 2. Preparation of 10 mM NADPH solution with 100 mM PBS buffer. The 10 mM stock solution of the compound of the present disclosure was diluted with DMSO to obtain a 200× concentration of compound working solution (6000, 2000, 600, 200, 60, 20, 0 μM). The stock solution of positive inhibitors was diluted with DMSO to obtain a 200× concentration of positive inhibitor working solution (sulfaphenazole, 1000, 300, 100, 30, 10, 3, 0 μM; quinidine/ketoconazole, 100, 30, 10, 3, 1, 0.3, 0 μM). A 200× concentration of substrate working solution (120 μM diclofenac, 400 μM dextromethorphan, and 200 μM midazolam) was prepared with water, acetonitrile, or acetonitrile/methanol. • 3. 2 μL of 20 mg/ml liver microsome solution, 1 μL of substrate working solution, 1 μL of compound working solution and 176 μL of PBS buffer were taken, mixed uniformly, and pre-incubated in a 37° C. water bath for 15 min. To the positive control group was added 1 μL of sulfaphenazole, quinidine or ketoconazole working solution instead of compound working solution. A 10 mM NADPH solution was also pre-incubated in the 37° C. water bath for 15 min. After 15 min, 20 μL of NADPH was taken and added to each well to initiate the reaction, and the reaction was incubated at 37° C. for 5 min (CYP2C9), 20 min (CYP2D6) or 5 min (CYP3A4). Double samples were set for all incubation samples. After the corresponding time of incubation, 400 μL of glacial methanol containing internal standard was added to all samples to stop the reaction. The mixture was mixed uniformly by vortex and centrifuged at 3220 g for 40 min at 4° C. After the completion of the centrifugation, 100 μL of the supernatant was transferred to a loading plate, and 100 μL of ultrapure water was added and mixed uniformly for LC-MS/MS analysis.
(§4) The reduction in metabolite production in the administration group compared to the control group was compared by the ratio of sample peak area to internal standard peak area, and IC50 value was calculated by Excel XLfit 5.3.1.3.
(§5) The percent remaining activity was calculated by the following equation: […]

CYP2D6 = CYP2D6 (Homo sapiens (Human), UniProt P10635); assay: as above; type: in vitro ADME
CYP2D6, sequence (P10635 whole entry): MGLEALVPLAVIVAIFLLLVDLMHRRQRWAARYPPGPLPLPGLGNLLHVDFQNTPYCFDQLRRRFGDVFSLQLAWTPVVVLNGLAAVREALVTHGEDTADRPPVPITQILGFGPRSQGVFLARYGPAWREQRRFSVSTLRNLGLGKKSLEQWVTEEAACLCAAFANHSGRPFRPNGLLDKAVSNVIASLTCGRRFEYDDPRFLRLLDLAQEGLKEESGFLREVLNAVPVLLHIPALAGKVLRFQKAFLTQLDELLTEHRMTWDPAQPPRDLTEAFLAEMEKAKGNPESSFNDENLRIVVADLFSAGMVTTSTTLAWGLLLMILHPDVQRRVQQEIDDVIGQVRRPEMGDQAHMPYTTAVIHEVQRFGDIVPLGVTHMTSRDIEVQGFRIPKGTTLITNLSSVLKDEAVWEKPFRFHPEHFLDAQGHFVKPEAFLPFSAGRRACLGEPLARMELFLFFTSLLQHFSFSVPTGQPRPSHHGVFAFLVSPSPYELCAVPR
Procedure: as §1, §2, §3, §4, §5

CYP2C9 = CYP2C9 (Homo sapiens (Human), UniProt P11712); assay: as above; type: in vitro ADME
CYP2C9, sequence (P11712 whole entry): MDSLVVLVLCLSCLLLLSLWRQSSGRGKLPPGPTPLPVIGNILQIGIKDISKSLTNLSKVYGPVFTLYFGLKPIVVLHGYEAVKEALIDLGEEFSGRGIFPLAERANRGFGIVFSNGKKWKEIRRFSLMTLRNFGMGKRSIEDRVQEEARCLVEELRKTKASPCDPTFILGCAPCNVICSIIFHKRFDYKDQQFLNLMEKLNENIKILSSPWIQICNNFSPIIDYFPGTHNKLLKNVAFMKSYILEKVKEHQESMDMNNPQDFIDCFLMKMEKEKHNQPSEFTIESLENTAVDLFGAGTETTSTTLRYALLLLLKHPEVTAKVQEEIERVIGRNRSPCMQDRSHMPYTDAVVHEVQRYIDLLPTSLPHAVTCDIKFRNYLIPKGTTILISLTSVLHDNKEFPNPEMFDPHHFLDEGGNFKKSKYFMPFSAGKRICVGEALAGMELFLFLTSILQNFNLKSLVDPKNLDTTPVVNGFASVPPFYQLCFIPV
Procedure: as §1, §2, §3, §4, §5

[1] = Metabolic stability in liver microsomes; type: in vitro ADME, mouse; conditions: for half-life at 1 μM: CD-1, mouse, microsomes
Procedure: The metabolic stability of the compounds of the present disclosure in liver microsomes was determined by the following experimental method.
• 1. Human liver microsomes (Corning 452117), Beagle dog liver microsomes (XENOTECH D1000), SD rat liver microsomes (XENOTECH R1000) and CD-1 mouse liver microsomes (XENOTECH M1000) • 2. Na2HPO4 (Tianjin Guangfu Fine Chemical Research Institute 20180130) • 3. KH2PO4 (Tianjin Guangfu Fine Chemical Research Institute 20180920) • 4. MgCl2 (Tianjin Guangfu Fine Chemical Research Institute 20191216) • 5. NADPH (Solarbio 1216C022) • 6. Positive control compound verapamil (Sigma MKBV4993V) • 7. AB Sciex API4000 liquid chromatography-mass spectrometry
• 1. Preparation of 100 mM phosphate buffered saline (PBS): 7.098 g of Na2HPO4 was weighed, 500 mL of pure water was added and subjected to ultrasonic dissolution to obtain solution A. 3.400 g of KH2PO4 was weighed, 250 mL of pure water was added and subjected to ultrasonic dissolution to obtain solution B. Solution A was placed on a stirrer and solution B was slowly added until the pH value reached 7.4 to prepare 100 mM PBS buffer. • 2. Preparation of reaction system
The reaction system was prepared according to the following table:
• 3. The reaction system was placed in a 37° C. water bath and pre-incubated for 10 min. 40 μL of 10 mM NADPH solution (NADPH was dissolved in 100 mM phosphate buffer) was added to the reaction system with the final concentration of NADPH being 1 mM. 40 μL of phosphate buffer was used instead of NADPH solution as negative control. The role of the negative control was to exclude the effect of the chemical stability of the compounds themselves. • 4. 4 μL of 100 μM compound of the present disclosure and the positive control compound verapamil were added to the reaction system to initiate the reaction, with the final concentration of the compound being 1 μM. • 5. After thorough mixing on a vortex oscillator, 50 μL of the incubated sample was taken out at 0.5 min, 15 min, 30 min, 45 min and 60 min, respectively, and the reaction was stopped with 200 μL of glacial acetonitrile containing internal standard. The sample was centrifuged at 3220 g for 45 min. […]
All the data was calculated by the Microsoft Excel software. The peak area was detected by extracting the ion chromatogram. The in vitro half-life (t1/2) of the compound was determined by performing linear fitting of the natural logarithm of elimination percent of the compound and time.
The in vitro half-life (t1/2) was calculated by means of the slope k: […]
The in vitro intrinsic clearance (unit: μL/min/mg protein) was calculated using the following equation: […]

[2] = pH 7.4, mouse liver microsomes 0.5 mg/mL, 1 μM compound, 1 mM NADPH, 37° C., read-out: Stability in mouse liver microsomes t1/2

CYP3A4, sequence (P08684 whole entry): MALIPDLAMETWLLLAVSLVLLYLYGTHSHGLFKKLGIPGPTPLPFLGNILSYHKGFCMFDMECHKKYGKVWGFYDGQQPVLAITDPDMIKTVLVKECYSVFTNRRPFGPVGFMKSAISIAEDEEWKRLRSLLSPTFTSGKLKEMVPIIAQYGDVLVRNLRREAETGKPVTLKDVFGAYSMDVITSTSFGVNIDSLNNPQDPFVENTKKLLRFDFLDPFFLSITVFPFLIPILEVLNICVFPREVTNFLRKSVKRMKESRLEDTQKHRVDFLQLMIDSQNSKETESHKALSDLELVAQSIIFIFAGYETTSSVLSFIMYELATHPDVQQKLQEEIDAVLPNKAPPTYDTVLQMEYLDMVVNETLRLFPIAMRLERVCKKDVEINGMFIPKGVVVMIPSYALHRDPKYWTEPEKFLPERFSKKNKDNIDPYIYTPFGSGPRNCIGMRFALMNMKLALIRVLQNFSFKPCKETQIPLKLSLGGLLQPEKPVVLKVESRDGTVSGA

| Structure (SMILES) | IC50 (CYP3A4) [µM] | IC50 (CYP2D6; read-out: Inhibition on CYP2D6 IC50, human liver microsomes, substrate dextromethorphan) [µM] | IC50 (CYP2C9) [µM] | half-life at 1 μM [1, 2] [min] | IC50 (CYP3A4; read-out: Inhibition on CYP3A4 IC50, human liver microsomes, substrate midazolam) [µM] | IC50 (CYP2D6) [µM] | IC50 (CYP2C9; read-out: Inhibition on CYP2C9 IC50, human liver microsomes, substrate diclofenac) [µM] | Stability in mouse liver microsomes t1/2 ([1]; mouse liver microsomes 0.5 mg/mL, 1 μM compound, 1 mM NADPH, 37° C.) [min] | half-life at 1 μM ([1]; pH 7.4) [min] |
| --- | --- | --- | --- | --- | --- | --- | --- | --- | --- |
| CC[C@@]1(O)C(=O)OCc2c1cc1n(c2=O)Cc2c-1nc1cc3c(cc1c2CNC(=O)C(O)C1CC1)OCO3 (single isomer, unassigned) [Compound 14-P1] | > 50 | > 50 | > 50 | 72.8 |  |  |  |  |  |
| CC[C@@]1(O)C(=O)OCc2c1cc1n(c2=O)Cc2c-1nc1cc3c(cc1c2CNC(=O)C(O)C1CC1)OCO3 (single isomer, unassigned) [Compound 14-P2] |  |  |  |  | > 50 | > 50 | > 50 | 65.0 |  |
| CC[C@@]1(O)C(=O)OCc2c1cc1n(c2=O)Cc2c-1nc1cc3c(c(F)c1c2CNC(=O)[C@@H](O)C1CC1)OCO3 (single isomer, unassigned) [Compound 37-P1] | > 50 |  | > 50 |  |  | > 50 |  |  | 134 |
| [2H]C1([2H])Oc2cc3nc4c(c(CNC(=O)C(O)C5CC5)c3cc2O1)Cn1c-4cc2c(c1=O)COC(=O)[C@]2(O)CC (stereo partly drawn) [Compound 39, 2-cyclopropyl-N-(((S)-7-ethyl-7-hydroxy-8,11-dioxo-7,8,11,13-tetrahydro-10H-[1,3]dioxolo[4,5-g]pyrano[3′,4′:6,7]indolizino[1,2-b]quinolin-14-yl-2,2-d2)methyl)-2-hydroxyacetamide] | > 50 |  | > 50 | 268 |  | > 50 |  |  |  |
